Data from US9512128B2 (BAYER CROPSCIENCE AG, priority 2012, dated 2016).
Read-outs that look alike come from different tables or passages of the source.

Assay: log P by HPLC on reversed-phase columns (C 18), EEC directive 79/831 Annex V.A8
Assay type: physicochemical
Conditions: for logP[a]: method [a]; for logP[b]: method [b]
Protocol: The log P values were determined according to EEC directive 79/831 Annex V.A8 by HPLC (High Performance Liquid Chromatography) on reversed-phase columns (C 18), using the methods below:
[a] The LC-MS determination in the acidic range is carried out at pH 2.7 with 0.1% aqueous formic acid and acetonitrile (contains 0.1% formic acid) as mobile phases; linear gradient from 10% acetonitrile to 95% acetonitrile.
[b] The LC-MS determination in the neutral range is carried out at pH 7.8 using the mobile phases 0.001 molar aqueous ammonium bicarbonate solution and acetonitrile; linear gradient from 10% acetonitrile to 95% acetonitrile.

[1] = reversed-phase C18 HPLC column, pH 2.7, acidic range, pH 2.7, 0.1% aqueous formic acid / acetonitrile, read-out: log P[a]
[2] = reversed-phase C18 HPLC column, pH 7.8, neutral range, pH 7.8, 0.001 molar aqueous ammonium bicarbonate / acetonitrile, read-out: log P[b]

SMILES	logP[a]	logP[b]	chromatographic logP [1]	chromatographic logP [2]	also measured
O=c1c2scnc2ncn1-c1cc([S+]([O-])CC(F)(F)F)c(Cl)cc1Cl (centres unmarked) [Compound 80]	2.01	1.98			
Cc1cc(C)c([S+]([O-])CC(F)(F)F)cc1-n1c(C)nc2c(ncn2C)c1=O (racemic) [Compound 59]	1.52	1.50			
Cn1ncc2c(=O)n(-c3cc([S+]([O-])CC(F)(F)F)c(Cl)cc3Cl)cnc21 (racemic) [Compound 4]	2.11	2.09			
Cc1nc2c(=O)n(-c3cc(SCC(F)(F)F)c(Cl)cc3Cl)cnc2s1 [Compound 71]	3.09	3.02			
Cc1cc(C)c(-n2cnc3c(ncn3C)c2=O)cc1SCC(F)(F)F [Compound 55]	2.28	2.23			
Cc1cc(C)c([S+]([O-])CC(F)(F)F)cc1-n1cnc2c(cnn2C)c1=O (racemic) [Compound 9]	1.74	1.74			
Cc1ccc(-n2cnc3nn(C)c(C)c3c2=O)cc1SCC(F)(F)F [Compound 44]	2.38	2.33			
Cc1cc(C)c(-n2cnc3c(cnn3C)c2=O)cc1SCC(F)(F)F [Compound 7]	2.79	2.73			
Cc1cc(F)c(-n2c(C(F)(F)F)nc3nn(C)cc3c2=O)cc1SCC(F)(F)F [Compound 42]	3.27	3.19			
O=c1c2scnc2ncn1-c1cc(SCC(F)(F)F)c(Cl)cc1Cl [Compound 77]	2.79	2.76			
Cc1cc(F)c(NC(=O)c2cnn(C)c2N)cc1SCC(F)(F)F [5-Amino-N-{2-fluoro-4-methyl-5-[(2,2,2-trifluoroethyl)sulphanyl]phenyl}-1-methyl-1H-pyrazole-4-carboxamide]			2.44	2.23	
Cc1ccc(-n2cnc3ccsc3c2=O)cc1[S+]([O-])CC(F)(F)F (centres unmarked) [Compound 101]	1.82	1.81			
Cc1ccc(-n2cnc3c(cnn3C)c2=O)cc1SCC(F)(F)F [Compound 8]	2.56	2.54			
Cc1ccc(Br)cc1S(=O)(=O)Cl [5-Bromo-2-methylbenzenesulphonyl chloride]			3.73	3.74	
Cc1cc(F)c(-n2c(C)nc3c(cnn3C)c2=O)cc1SCC(F)(F)F [Compound 14, 5-{2-Fluoro-4-methyl-5-[(2,2,2-trifluoroethyl)sulphanyl]phenyl}-1,6-dimethyl-1,5-dihydro-4H-pyrazolo[3,4-d]pyrimidin-4-one]			2.84	2.79	chromatographic logP (reversed-phase C18 HPLC column, pH 2.7, method [a], read-out: logP[a]): 2.84; chromatographic logP (reversed-phase C18 HPLC column, pH 7.8, method [b], read-out: logP[b]): 2.79
Cc1ccc(-n2cnc3ccsc3c2=O)cc1SCC(F)(F)F [Compound 100]	2.87	2.79			
Cc1cc(C)c([S+]([O-])CC(F)(F)F)cc1-n1cnc2c(ncn2C)c1=O (racemic) [Compound 58]	1.43	1.40			
Cn1ncc2c(=O)n(-c3ccc(Cl)c([S+]([O-])CC(F)(F)F)c3)cnc21 (racemic) [Compound 28]	1.80	1.80			
Cc1nc2c(=O)n(-c3cc([S+]([O-])CC(F)(F)F)c(Cl)cc3Cl)cnc2s1 (centres unmarked) [Compound 74]	2.22	2.17			
Cc1nn(C)c2ncn(-c3ccc(C#N)c([S+]([O-])CC(F)(F)F)c3)c(=O)c12 (centres unmarked) [Compound 35]	1.74	1.70			
N#Cc1ccc(-n2cnc3sccc3c2=O)cc1SCC(F)(F)F [Compound 93]	2.48	2.46			
Cc1cc(C)c([S+]([O-])CC(F)(F)F)cc1-n1c(C)nc2c(cnn2C)c1=O (racemic) [Compound 10]	1.86	1.84			
O=C(Nc1ccc(Cl)c(SCC(F)(F)F)c1)C(F)(F)F [Compound X-3, N-{4-Chloro-3-[(2,2,2-trifluoroethyl)sulphanyl]phenyl}-2,2,2-trifluoroacetamide]			3.46	3.41	
O=[N+]([O-])c1cc(SSc2cc([N+](=O)[O-])c(Cl)cc2Cl)c(Cl)cc1Cl [XIX-6, 1,1′-Disulphanediylbis(2,4-dichloro-5-nitrobenzene)]					chromatographic logP (acidic range, pH 2.7, 0.1% aqueous formic acid / acetonitrile, read-out: log P[a]): 5.69; chromatographic logP (neutral range, pH 7.8, 0.001 molar aqueous ammonium bicarbonate / acetonitrile, read-out: log P[b]): 5.64
Cc1cc(F)c(-n2cnc3c(Cl)c(Cl)sc3c2=O)cc1[S+]([O-])CC(F)(F)F (centres unmarked) [Compound 115]	3.20	3.13			
Cc1cc(C)c(-n2c(C)nc3c(cnn3C)c2=O)cc1SCC(F)(F)F [Compound 6]	2.92	2.86			
O=c1c2ccsc2ncn1-c1ccc(C(F)(F)F)c(SCC(F)(F)F)c1 [Compound 94]	3.27	3.21			
Cc1cc(F)c(-n2c(C)nc3c(cnn3CC(F)(F)F)c2=O)cc1[S+]([O-])CC(F)(F)F (racemic) [Compound 22]	2.52				
Cc1cc(F)c(-n2cnc3c(Cl)csc3c2=O)cc1SCC(F)(F)F [Compound 110]	3.56	3.41			
Cc1cc(C)c(-n2cnc3scnc3c2=O)cc1SCC(F)(F)F [Compound 62]	2.67	2.64			

The next lines start with results.

logP[a]	logP[b]	chromatographic logP [1]	chromatographic logP [2]	SMILES	also measured
		1.38	1.11	Cc1cc(F)c(B(O)O)cc1[S+]([O-])CC(F)(F)F (centres unmarked) [VIIIb-1, {2-Fluoro-4-methyl-5-[(2,2,2-trifluoroethyl)sulphinyl]phenyl}boronic acid]	
		3.84	3.83	Nc1cc(SSc2ccc(Cl)c(N)c2)ccc1Cl [XVIII-4, 3,3′-Disulphanediylbis(6-chloroaniline)]	
		3	2.95	Nc1cc(SCC(F)(F)F)ccc1Cl [IVa-4, 2-Chloro-5-[(2,2,2-trifluoroethyl)sulphanyl]aniline]	
		5.14	4.95	Nc1cc(SSc2cc(N)c(Cl)cc2Cl)c(Cl)cc1Cl [XVIII-6, 3,3′-Disulphanediylbis(4,6-dichloroaniline)]	
		3.69	3.81	COc1ccc(Br)cc1SCC(F)(F)F [VIIa-8, 4-Bromo-1-methoxy-2-[(2,2,2-trifluoroethyl)sulphanyl]benzene]	
		1.64		Nc1ccc(Cl)c(S)c1 [XVI-3, 5-Amino-2-chlorobenzenethiol]	
		1.41	1.36	Cc1ccc(B(O)O)cc1[S+]([O-])CC(F)(F)F (centres unmarked) [VIIIb-7, {4-Methyl-3-[(2,2,2-trifluoroethyl)sulphinyl]phenyl}boronic acid]	
		2.98	2.97	Nc1cc(SSc2ccc(F)c(N)c2)ccc1F [XVIII-5, 3,3′-Disulphanediylbis(6-fluoroaniline)]	
		3.7		Cc1cc(F)c(N)cc1S [XVI-1, 5-Amino-4-fluoro-2-methylbenzenethiol]	
		4.29	4.26	Cc1ccc(Br)cc1SCC(F)(F)F [VIIa-7, 5-Bromo-2-methylphenyl-2,2,2-trifluoroethyl sulphide]	
		4.8	4.77	FC(F)(F)CSc1cc(Br)c(Cl)cc1Cl [VIIa-6, 1-Bromo-2,4-dichloro-5-[(2,2,2-trifluoroethyl)sulphanyl]benzene]	
		3.22	3.16	Cc1cc(F)c(NC(=O)c2cnn(C)c2[N+](=O)[O-])cc1SCC(F)(F)F [N-{2-Fluoro-4-methyl-5-[(2,2,2-trifluoroethyl)sulphanyl]phenyl}-1-methyl-5-nitro-1H-pyrazole-4-carboxamide]	
		3.21	3.16	N#Cc1ccc(Br)cc1SCC(F)(F)F [VIIa-9, 4-Bromo-2-[(2,2,2-trifluoroethyl)sulphanyl]benzonitrile]	
		3.02	3	Nc1cc(SCC(F)(F)F)c(Cl)cc1F [IVa-2, 4-Chloro-2-fluoro-5-[(2,2,2-trifluoroethyl)sulphanyl]aniline]	
		2.64	2.69	Nc1ccc(Cl)c(SCC(F)(F)F)c1 [IVa-3, 4-Chloro-3-[(2,2,2-trifluoroethyl)sulphanyl]aniline]	
